Target: T1, PD-1/PD-L1 (Homo sapiens, UniProt Q9NZQ7)
T1 construct: made in house; host or cells: HEK293T
Test: PD-1/PD-L1 Homogenous Time-Resolved Fluorescence (HTRF) binding assay
Conditions: PD-L1-His 10 nM, PD-1-Ig 20 nM; value given as range class; read-out: Range or IC50
Method in brief: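 dPBS + 0.1% BSA + 0.05% Tween-20 buffer; Eu-cryptate anti-Ig 1 nM final, APC anti-His 20 nM final; HTRF read. Counter-assays: PD-1-Ig/PD-L2-His 20 & 5 nM, CD80-His/PD-L1-Ig 100 & 10 nM.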

T1 sequence (Q9NZQ7 with tags, fused parts or gaps): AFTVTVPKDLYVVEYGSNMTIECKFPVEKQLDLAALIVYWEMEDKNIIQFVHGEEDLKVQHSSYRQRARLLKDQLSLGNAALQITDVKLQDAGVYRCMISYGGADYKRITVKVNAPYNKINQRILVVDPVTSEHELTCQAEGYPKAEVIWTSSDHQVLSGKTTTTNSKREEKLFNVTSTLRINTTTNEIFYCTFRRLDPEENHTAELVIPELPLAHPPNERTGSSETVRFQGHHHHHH

| IC50 [nM] | SMILES |
| --- | --- |
| 0.21 to 10 | CCOC(=O)C1(CO)CCN(CCCOc2cccc(-c3cccc(COc4cc(OCc5cncc(C#N)c5)c(CN[C@](C)(CO)C(=O)O)cc4Cl)c3C)c2Cl)C1 (stereo partly drawn) [Example 1103, (2R)-2-((5-chloro-4-((2′-chloro-3′-(3-(3-(ethoxycarbonyl)-3-(hydroxymethyl)pyrrolidin-1-yl)propoxy)-2-methyl-[1,1′-biphenyl]-3-yl)methoxy)-2-((5-cyanopyridin-3-yl)methoxy)benzyl)amino)-3-hydroxy-2-methylpropanoic Acid] |
| 0.21 to 10 | Cc1c(COc2cc(OCc3cncc(C#N)c3)c(C(C)N[C@@H](CO)C(=O)O)cc2Cl)cccc1-c1cccc(OCCCN2CC[C@@H](O)C2)c1C (stereo partly drawn) [Example 4141, (1-(5-chloro-2-((5-cyanopyridin-3-yl)methoxy)-4-((3′-(3-((R)-3-hydroxypyrrolidin-1-yl)propoxy)-2,2′-dimethyl-[1,1′-biphenyl]-3-yl)methoxy)phenyl)ethyl)-L-serine] |
| 0.21 to 10 | Cc1c(COc2cc(OCc3cncc(C(N)=O)c3)c(CN[C@](C)(CO)C(=O)O)cc2Cl)cccc1-c1cccc(OCCCN2CCC(O)(C(=O)O)C2)c1C (stereo partly drawn) [Example 1057, 1-(3-((3′-((5-((5-carbamoylpyridin-3-yl)methoxy)-4-((((R)-2-carboxy-1-hydroxypropan-2-yl)amino)methyl)-2-chlorophenoxy)methyl)-2,2′-dimethyl-[1,1′-biphenyl]-3-yl)oxy)propyl)-3-hydroxypyrrolidine-3-carboxylic Acid] |
| 100 to 2000 | CCN(CC)C(=O)c1cccc(-c2cccc(COc3cc(OCc4cncc(C#N)c4)c(CN4CCOC[C@H]4C(=O)O)cc3Cl)c2C)c1C [Example 4046, (S)-4-(5-chloro-2-((5-cyanopyridin-3-yl)methoxy)-4-((3′-(diethylcarbamoyl)-2,2′-dimethyl-[1,1′-biphenyl]-3-yl)methoxy)benzyl)morpholine-3-carboxylic Acid] |
| 0.21 to 10 | Cc1c(COc2cc(OCc3cncc(C#N)c3)c(CN[C@@](C)(CO)C(=O)O)c(C)c2Cl)cccc1-c1cccc(OCCCN2CC[C@@H](O)C2)c1C [Example 4106, (S)-2-((3-chloro-6-((5-cyanopyridin-3-yl)methoxy)-4-((3′-(3-((R)-3-hydroxypyrrolidin-1-yl)propoxy)-2,2′-dimethyl-[1,1′-biphenyl]-3-yl)methoxy)-2-methylbenzyl)amino)-3-hydroxy-2-methylpropanoic Acid] |
| 100 to 2000 | Cc1c(COc2cc(OCc3cncc(C#N)c3)c(CN[C@@H](CN)C(=O)O)cc2Cl)cccc1-c1cccc(C(=O)N2CCOCC2)c1C [Example 4059, (S)-3-amino-2-((5-chloro-2-((5-cyanopyridin-3-yl)methoxy)-4-((2,2′-dimethyl-3′-(morpholine-4-carbonyl)-[1,1′-biphenyl]-3-yl)methoxy)benzyl)amino)propanoic Acid] |
| 0.21 to 10 | Cc1c(COc2cc(OCc3cncc(C#N)c3)c(CN(C)CC(C)(C)O)cc2Cl)cccc1-c1cccc(OCCCN2CC[C@@H](O)C2)c1Cl [Example 2068, (R)-5-((4-chloro-5-((2′-chloro-3′-(3-(3-hydroxypyrrolidin-1-yl)propoxy)-2-methyl-[1,1′-biphenyl]-3-yl)methoxy)-2-(((2-hydroxy-2-methylpropyl)(methyl)amino)methyl)phenoxy)methyl)nicotinonitrile] |
| 0.21 to 10 | Cc1c(COCCN2CC[C@@H](O)C2)cccc1-c1cccc(COc2cc(OCc3cncc(C#N)c3)c(CNC3(C(=O)O)CC3)cc2Cl)c1C [Example 4124, (R)-1-((5-chloro-2-((5-cyanopyridin-3-yl)methoxy)-4-((3′-((2-(3-hydroxypyrrolidin-1-yl)ethoxy)methyl)-2,2′-dimethyl-[1,1′-biphenyl]-3-yl)methoxy)benzyl)amino)cyclopropane-1-carboxylic Acid] |
| 0.21 to 10 | Cc1c(CCCCN2CC[C@@H](O)C2)cccc1-c1cccc(COc2cc(OCc3cncc(C#N)c3)c(CN3CCNC[C@H]3C(=O)O)cc2Cl)c1C [Example 4070, (S)-1-(5-chloro-2-((5-cyanopyridin-3-yl)methoxy)-4-((3′-(4-((R)-3-hydroxypyrrolidin-1-yl)butyl)-2,2′-dimethyl-[1,1′-biphenyl]-3-yl)methoxy)benzyl)piperazine-2-carboxylic Acid] |
| 100 to 2000 | CCN(CC)C(=O)c1cccc(-c2cccc(COc3cc(OCc4cncc(C#N)c4)c(CNC(CO)CO)cc3Cl)c2C)c1C [Example 4044, 3′-((2-chloro-5-((5-cyanopyridin-3-yl)methoxy)-4-(((1,3-dihydroxypropan-2-yl)amino)methyl)phenoxy)methyl)-N,N-diethyl-2,2′-dimethyl-[1,1′-biphenyl]-3-carboxamide] |
| 10 to 100 | Cc1c(COc2cc(OCc3cncc(C#N)c3)c(CNC(CO)CO)cc2Cl)cccc1-c1cccc(NC(=O)c2ncccc2CO)c1C [Example 2340, N-(3′-((2-chloro-5-((5-cyanopyridin-3-yl)methoxy)-4-(((1,3-dihydroxypropan-2-yl)amino)methyl)phenoxy)methyl)-2,2′-dimethyl-[1,1′-biphenyl]-3-yl)-3-(hydroxymethyl)picolinamide] |
| 0.21 to 10 | Cc1c(COc2cc(OCc3cncc(C#N)c3)c(CN(C)[C@@H](CO)C(=O)O)cc2Cl)cccc1-c1cccc(OCCCN2CC[C@@H](O)C2)c1C [Example 4136, N-(5-chloro-2-((5-cyanopyridin-3-yl)methoxy)-4-((3′-(3-((R)-3-hydroxypyrrolidin-1-yl)propoxy)-2,2′-dimethyl-[1,1′-biphenyl]-3-yl)methoxy)benzyl)-N-methyl-L-serine] |
| 0.21 to 10 | Cc1c(COc2cc(OCc3cncc(C#N)c3)c(CN3CCCC[C@H]3C(=O)O)cc2Cl)cccc1-c1cccc(OCCCNC[C@@H](O)c2ccccc2)c1C [Example 2221, (2S)-1-(5-chloro-2-((5-cyanopyridin-3-yl)methoxy)-4-((3′-(3-((S)-2-hydroxy-2-phenylethylamino)propoxy)-2,2′-dimethylbiphenyl-3-yl)methoxy)benzyl)piperidine-2-carboxylic Acid] |
| 0.21 to 10 | Cc1c(COc2cc(OCc3cncc(C#N)c3)c(CN[C@@](C)(CO)C(=O)O)cc2Cl)cccc1-c1cccc(OCCCN2CCN(CCO)CC2)c1C [Example 2263, (2S)-2-(5-chloro-2-((5-cyanopyridin-3-yl)methoxy)-4-((3′-(3-(4-(2-hydroxyethyl)piperazin-1-yl)propoxy)-2,2′-dimethylbiphenyl-3-yl)methoxy)benzylamino)-3-hydroxy-2-methylpropanoic Acid] |
| 0.21 to 10 | Cc1c(COc2cc(OCc3cncc(C#N)c3)c(CNC(C)(CO)CO)cc2Cl)cccc1-c1cccc(OCCCN2CCC(CO)CC2)c1C [Example 2288, 5-((4-chloro-2-(((1,3-dihydroxy-2-methylpropan-2-yl)amino)methyl)-5-((3′-(3-(4-(hydroxymethyl)piperidin-1-yl)propoxy)-2,2′-dimethyl-[1,1′-biphenyl]-3-yl)methoxy)phenoxy)methyl)nicotinonitrile] |
| 100 to 2000 | CCNC(=O)c1cccc(-c2cccc(COc3cc(OCc4cc(F)cc(F)c4)c(CN4C[C@H](O)C[C@H]4C(=O)O)cc3Cl)c2C)c1C [Example 4019, (2S,4R)-1-(5-chloro-2-((3,5-difluorobenzyl)oxy)-4-((3′-(ethylcarbamoyl)-2,2′-dimethyl-[1,1′-biphenyl]-3-yl)methoxy)benzyl)-4-hydroxypyrrolidine-2-carboxylic Acid] |
| 0.21 to 10 | Cc1ccc(COc2cc(OCc3cccc(-c4cccc(OCCCN5CC[C@@H](O)C5)c4C)c3C)c(Cl)cc2CNC(CO)(CO)CO)cc1C [Example 4507, (R)-2-((5-chloro-2-((3,4-dimethylbenzyl)oxy)-4-((3′-(3-(3-hydroxypyrrolidin-1-yl)propoxy)-2,2′-dimethyl-[1,1′-biphenyl]-3-yl)methoxy)benzyl)amino)-2-(hydroxymethyl)propane-1,3-diol] |
| 0.21 to 10 | CC(=O)N[C@H]1CCN(CCCOc2cccc(-c3cccc(COc4cc(OCc5cncc(C#N)c5)c(CNC(CO)CO)cc4Cl)c3Cl)c2C)C1 [Example 2311, (S)—N-(1-(3-((2′-chloro-3′-((2-chloro-5-((5-cyanopyridin-3-yl)methoxy)-4-(((1,3-dihydroxypropan-2-yl)amino)methyl)phenoxy)methyl)-2-methyl-[1,1′-biphenyl]-3-yl)oxy)propyl)pyrrolidin-3-yl)acetamide] |
| 0.21 to 10 | COc1c(COc2cc(OCc3cncc(C#N)c3)c(CN[C@](C)(CO)C(=O)O)cc2Cl)cccc1-c1cccc(OCCCN2CC[C@@H](O)C2)c1C [Example 3025, (R)-2-((5-chloro-2-((5-cyanopyridin-3-yl)methoxy)-4-((3′-(3-((R)-3-hydroxypyrrolidin-1-yl)propoxy)-2-methoxy-2′-methyl-[1,1′-biphenyl]-3-yl)methoxy)benzyl)amino)-3-hydroxy-2-methylpropanoic Acid] |
| 10 to 100 | Cc1c(COc2cc(OCc3cncc(C#N)c3)c(C=O)cc2Cl)cccc1-c1ccc2c(c1)OC(CCN1CC[C@H](O)C1)CO2 (mixture of isomers) [Example 1502, 5-((4-chloro-2-formyl-5-((3-(3-(2-((S)-3-hydroxypyrrolidin-1-yl)ethyl)-2,3-dihydrobenzo[b][1,4]dioxin-6-yl)-2-methylbenzyl)oxy)phenoxy)methyl)nicotinonitrile] |
| 0.21 to 10 | Cc1c(COc2cc(OCc3cncc(C#N)c3)c(CN[C@@H](CO)C(=O)O)cc2Cl)cccc1-c1cccc(OCCCNC[C@H](O)CO)c1Cl [Example 2004, (S)-2-((5-chloro-4-((2′-chloro-3′-(3-(((S)-2,3-dihydroxypropyl)amino)propoxy)-2-methyl-[1,1′-biphenyl]-3-yl)methoxy)-2-((5-cyanopyridin-3-yl)methoxy)benzyl)amino)-3-hydroxypropanoic Acid] |
